Measured values as given in PMC7270110, “Labeled oxytocin administered via the intranasal route reaches the brain in rhesus macaques” (Nature Communications, 2020).

Experiment: Brain tissue concentration of endogenous OT (d0OT) by LC-MS/MS (terminal experiment)
Format: in vivo, rhesus macaques (Macaca mulatta)
Conditions: for BRAIN OT concentration (endogenous): LC-MS/MS; for Concentrations of endogenous brain oxytocin (OT): molarity calculated for extracellular fluid volume
Protocol: Monkeys were divided into three groups, each with two monkeys; each group received the following in a terminal study at the 5th week: Group 1 (Monkeys ID# 1 and ID# 5) received 40 IU of d5OT IN, Group 2 received 80 IU of d5OT IN (Monkeys ID# 2 and ID# 4) and Group 3 received 80 IU of d5OT IV (Monkeys ID# 3 and ID# 6). Animals were perfused on average, 140 ± 7 (mean ± SD) min after d5OT administration (range = 135–149 min) (Table 4). Plasma and CSF were drawn just before administration of d5OT, at the midpoint between d5OT administration and perfusion (~60 min post-d5OT administration), and just before perfusion.
Brain tissue distribution of d5OT, as well as the endogenous concentrations of OT (d0OT), were measured in the following 12 brain regions: cerebellum, brainstem, striatum, amygdala, thalamus, visual cortex, insular cortex, hypothalamus, hippocampus, mPFC (Brodmann areas 32,25,24), dPFC (Brodmann areas 46,9,10), and OFC (Brodmann areas 14,13,12) (Tables 1, 2 and 3).
Brain tissue sample preparation: Samples (~1.5 mg per sample) were individually weighed and placed into 12 mm × 75 mm glass tubes containing 1.5 ml ice-cold 1 M acetic acid and 30 µl of OT-d10 internal standard. Tissues were homogenized on ice and the resulting homogenates were poured into individual 15 ml polystyrene tubes. The original glass tube was rinsed with 1 ml acetonitrile, and this rinse was added to the appropriate 15 ml polystyrene tube containing the homogenate. After all homogenizations were complete, 3 ml acetonitrile was added to each tube and extraction proceeded, as described for the plasma and CSF samples.
LC–MS/MS instrument parameters: Microtiter plates were prepared, as described above, and loaded onto a SIL-30ACMP autosampler set at 4 °C (Shimadzu). Forty microliters of each standard, QC or sample were injected onto an ACE Excel 2 C18-PFP 50 mm × 2.1 mm column (Advanced Chromatography Technologies, LTD, Aberdeen, Scotland) at 50 °C using reversed-phase chromatography. Mobile phase A was 0.1% formic acid in water and mobile phase B was 0.1% formic acid in ACN. The LC time gradient was created using two Nexera LC-30AD pumps (Shimadzu) running at 0.5 ml/min. Chromatography for serum and CSF samples began at 10% B and ended at 16% B at 3.6 min. One minute at 60% B was then required to wash the column, and the pumps re-equilibrated at 10% B for an additional 1.7 min (total run time ~6 min). Outside of the 1.55–3.55 min window during which OT eluted, a divert valve sent the LC effluent to waste.
Heated electrospray […] in positive mode, with scheduled multiple reaction monitoring (MRM) on a Shimadzu LCMS-8050, was used for detection of OT. The interface temperature was 270 °C and heat block temperature was 170 °C. Gas was supplied by a Peak Genius 1051 nitrogen and air generator (Peak Scientific, Inchinnan, UK). Nitrogen gas was used for nebulizing (1 L/min) and drying (8.2 L/min), while air was used for heating (7.8 L/min). A capillary B needle was used in the interface. Needle protrusion was set to 1.25 mm and probe distance was set to 1.0 mm; both were determined empirically. Argon (Airgas, Radnor, PA) was used for the collision-induced dissociation at 330 kPa. The MS/MS conditions for OT were optimized using the automated MRM optimization procedure in LabSolutions software (Shimadzu). We collected two MRM transitions each, for d0OT (1007.40 > 723.40 and 1007.40 > 285.30), d5OT (1012.00 > 723.40 and 1012.00 > 290.35), and d10OT (1017.70 > 723.35 and 1017.70 > 295.40); the first transition listed in each case was used for quantitation, while the second was used as a reference ion. Retention times for d0OT, d5OT, and d10OT were 3.290, 3.270, and 3.253 min, respectively.
The sensitivities of each assay within the method were determined by the lowest and highest concentration calibrators in the calibration curve. The lower limit of quantitation (LLOQ) for d0OT was 10 pg/ml (4 pg/col); the LLOQ for d5OT was 100 pg/ml (40 pg/col). […]

BRAIN OT concentration (endogenous) (Insular Cortex, after d5OT 40 IU IN, monkey #5 (F), perfused 138 min post-dose): 0.30 pg/mg | BRAIN OT concentration (endogenous) (Insular Cortex, after d5OT 80 IU IN, monkey #4 (M), perfused 135 min post-dose): 0.06 pg/mg | BRAIN OT concentration (endogenous) (Insular Cortex, after d5OT 80 IU IV, monkey #3 (F), perfused 149 min post-dose): 0.16 pg/mg | Concentrations of endogenous brain oxytocin (OT) (OFC, 40 IN, monkey #1 (F)): 1e-09 M | Concentrations of endogenous brain oxytocin (OT) (OFC, 40 IN, monkey #5 (F)): 5e-09 M | Concentrations of endogenous brain oxytocin (OT) (OFC, 80 IN, monkey #2 (M)): 2.2e-09 M | Concentrations of endogenous brain oxytocin (OT) (OFC, 80 IN, monkey #4 (M)): 9e-09 M | Concentrations of endogenous brain oxytocin (OT) (OFC, 80 IV, monkey #3 (F)): 2e-09 M | BRAIN OT concentration (endogenous) (OFC, after d5OT 40 IU IN, monkey #1 (F), perfused 148 min post-dose): 0.22 pg/mg | BRAIN OT concentration (endogenous) (OFC, after d5OT 40 IU IN, monkey #5 (F), perfused 138 min post-dose): 0.96 pg/mg | BRAIN OT concentration (endogenous) (OFC, after d5OT 80 IU IN, monkey #2 (M), perfused 136 min post-dose): 0.40 pg/mg | BRAIN OT concentration (endogenous) (OFC, after d5OT 80 IU IN, monkey #4 (M), perfused 135 min post-dose): 1.59 pg/mg | BRAIN OT concentration (endogenous) (OFC, after d5OT 80 IU IV, monkey #3 (F), perfused 149 min post-dose): 0.44 pg/mg | Concentrations of endogenous brain oxytocin (OT) (Striatum, 40 IN, monkey #1 (F)): 3e-09 M | Concentrations of endogenous brain oxytocin (OT) (Striatum, 40 IN, monkey #5 (F)): 7e-09 M | Concentrations of endogenous brain oxytocin (OT) (Striatum, 80 IN, monkey #2 (M)): 9e-09 M | Concentrations of endogenous brain oxytocin (OT) (Striatum, 80 IN, monkey #4 (M)): 9.7e-08 M | Concentrations of endogenous brain oxytocin (OT) (Striatum, 80 IV, monkey #3 (F)): 7.9e-08 M | Concentrations of endogenous brain oxytocin (OT) (Striatum, 80 IV, monkey #6 (F)): 8.6e-08 M | BRAIN OT concentration (endogenous) (Striatum, after d5OT 40 IU IN, monkey #1 (F), perfused 148 min post-dose): 0.63 pg/mg | BRAIN OT concentration (endogenous) (Striatum, after d5OT 40 IU IN, monkey #5 (F), perfused 138 min post-dose): 1.20 pg/mg | BRAIN OT concentration (endogenous) (Striatum, after d5OT 80 IU IN, monkey #2 (M), perfused 136 min post-dose): 1.58 pg/mg | BRAIN OT concentration (endogenous) (Striatum, after d5OT 80 IU IN, monkey #4 (M), perfused 135 min post-dose): 17.81 pg/mg | BRAIN OT concentration (endogenous) (Striatum, after d5OT 80 IU IV, monkey #3 (F), perfused 149 min post-dose): 14.45 pg/mg | BRAIN OT concentration (endogenous) (Striatum, after d5OT 80 IU IV, monkey #6 (F), perfused 135 min post-dose): 15.82 pg/mg | Concentrations of endogenous brain oxytocin (OT) (Thalamus, 40 IN, monkey #1 (F)): 2.4e-08 M | Concentrations of endogenous brain oxytocin (OT) (Thalamus, 40 IN, monkey #5 (F)): 4e-08 M | Concentrations of endogenous brain oxytocin (OT) (Thalamus, 80 IN, monkey #2 (M)): 6e-09 M | Concentrations of endogenous brain oxytocin (OT) (Thalamus, 80 IN, monkey #4 (M)): 1.7e-08 M | Concentrations of endogenous brain oxytocin (OT) (Thalamus, 80 IV, monkey #3 (F)): 2.1e-08 M | Concentrations of endogenous brain oxytocin (OT) (Thalamus, 80 IV, monkey #6 (F)): 1.55e-07 M | BRAIN OT concentration (endogenous) (Thalamus, after d5OT 40 IU IN, monkey #1 (F), perfused 148 min post-dose): 4.39 pg/mg | BRAIN OT concentration (endogenous) (Thalamus, after d5OT 40 IU IN, monkey #5 (F), perfused 138 min post-dose): 7.31 pg/mg | BRAIN OT concentration (endogenous) (Thalamus, after d5OT 80 IU IN, monkey #2 (M), perfused 136 min post-dose): 1.02 pg/mg | BRAIN OT concentration (endogenous) (Thalamus, after d5OT 80 IU IN, monkey #4 (M), perfused 135 min post-dose): 3.09 pg/mg | BRAIN OT concentration (endogenous) (Thalamus, after d5OT 80 IU IV, monkey #3 (F), perfused 149 min post-dose): 3.85 pg/mg | BRAIN OT concentration (endogenous) (Thalamus, after d5OT 80 IU IV, monkey #6 (F), perfused 135 min post-dose): 28.34 pg/mg | Concentrations of endogenous brain oxytocin (OT) (dPFC, 40 IN, monkey #5 (F)): 1e-09 M | Concentrations of endogenous brain oxytocin (OT) (dPFC, 80 IN, monkey #4 (M)): 1e-09 M | Concentrations of endogenous brain oxytocin (OT) (dPFC, 80 IV, monkey #3 (F)): 2e-09 M | BRAIN OT concentration (endogenous) (dPFC, after d5OT 40 IU IN, monkey #5 (F), perfused 138 min post-dose): 0.16 pg/mg | BRAIN OT concentration (endogenous) (dPFC, after d5OT 80 IU IN, monkey #4 (M), perfused 135 min post-dose): 0.20 pg/mg | BRAIN OT concentration (endogenous) (dPFC, after d5OT 80 IU IV, monkey #3 (F), perfused 149 min post-dose): 0.27 pg/mg | BRAIN OT concentration (endogenous) (mPFC, after d5OT 40 IU IN, monkey #1 (F), perfused 148 min post-dose): 0.86 pg/mg | BRAIN OT concentration (endogenous) (mPFC, after d5OT 40 IU IN, monkey #5 (F), perfused 138 min post-dose): 0.88 pg/mg | BRAIN OT concentration (endogenous) (mPFC, after d5OT 80 IU IN, monkey #4 (M), perfused 135 min post-dose): 0.45 pg/mg
SMILES: CC[C@H](C)[C@@H]1NC(=O)[C@H](Cc2ccc(O)cc2)NC(=O)[C@@H](N)CSSC[C@@H](C(=O)N2CCC[C@H]2C(=O)N[C@@H](CC(C)C)C(=O)NCC(N)=O)NC(=O)[C@H](CC(N)=O)NC(=O)[C@H](CCC(N)=O)NC1=O [OT, oxytocin]
